From patent US8633183B2 (priority 2010, dated 2014)

These compounds were tested against PI3Kalpha (Homo sapiens (Human), UniProt P42336). Conditions: read-out: IC50 PI3K.
Chain of PI3Kalpha (P42336 whole entry, looked up): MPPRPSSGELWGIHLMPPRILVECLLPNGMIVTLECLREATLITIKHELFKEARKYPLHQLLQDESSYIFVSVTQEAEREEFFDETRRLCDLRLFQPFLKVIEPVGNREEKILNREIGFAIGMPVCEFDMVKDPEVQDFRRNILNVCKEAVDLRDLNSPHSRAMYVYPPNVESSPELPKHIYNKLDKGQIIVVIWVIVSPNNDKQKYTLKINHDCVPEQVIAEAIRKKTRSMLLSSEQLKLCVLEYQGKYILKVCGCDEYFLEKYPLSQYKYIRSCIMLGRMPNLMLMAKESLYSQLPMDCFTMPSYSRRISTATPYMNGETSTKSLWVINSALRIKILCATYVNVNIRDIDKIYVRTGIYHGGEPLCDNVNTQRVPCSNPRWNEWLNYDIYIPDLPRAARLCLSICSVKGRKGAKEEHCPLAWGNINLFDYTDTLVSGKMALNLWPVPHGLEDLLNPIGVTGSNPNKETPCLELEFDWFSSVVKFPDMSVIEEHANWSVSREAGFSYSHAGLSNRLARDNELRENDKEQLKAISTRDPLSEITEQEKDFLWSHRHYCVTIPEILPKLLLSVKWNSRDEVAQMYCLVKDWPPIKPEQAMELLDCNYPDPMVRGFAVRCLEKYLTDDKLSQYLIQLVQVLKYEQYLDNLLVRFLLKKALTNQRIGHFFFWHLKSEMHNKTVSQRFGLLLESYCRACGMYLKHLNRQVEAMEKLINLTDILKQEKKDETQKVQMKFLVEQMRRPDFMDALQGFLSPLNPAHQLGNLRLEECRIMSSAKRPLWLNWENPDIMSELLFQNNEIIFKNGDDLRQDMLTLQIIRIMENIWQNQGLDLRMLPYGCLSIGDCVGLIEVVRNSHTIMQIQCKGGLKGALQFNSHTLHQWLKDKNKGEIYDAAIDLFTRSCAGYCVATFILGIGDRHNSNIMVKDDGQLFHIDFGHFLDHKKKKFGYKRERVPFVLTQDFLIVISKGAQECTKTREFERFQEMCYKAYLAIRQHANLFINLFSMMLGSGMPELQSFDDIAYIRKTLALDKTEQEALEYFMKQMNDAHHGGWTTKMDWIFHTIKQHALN
Protocol: Plot the concentration of each compound versus the emission ratio. […] Determination of IC50 values can be obtained by curve fitting (sigmoidal dose response, variable slope) using Prism software from GraphPad).
Method Type: Filter-Binding-Assay
Compounds are serially diluted in assay buffer+6% DMSO and 10 μl of each dilution is added per well of a 96-well plate (compounds are tested in duplicates) and mixed with 30 μl of the lipid vesicles containing PDGFR-Peptide (0.5 μM final) and PI3K alpha (25 ng/well final). The mixture is then incubated for 20 minutes at room temperature. Subsequently, 20 μl of assay buffer containing 3 μM cold ATP and 0.5 μCi/20 μl 33P-ATP are added. The plates are then incubated at room temperature for 120 minutes (shaking with 300 rpm). The reaction mix is transferred onto filter plates using “filtermate harvester” from Packard: filter plates are rinsed with PBS, then the reaction mix is filtered onto the filter plate, washed 5 times with PBS and are allowed to dry for 30-60 minutes at 50° C.
As positive control serve wells containing vehicle controls (1% DMSO in assay buffer), showing non-inhibited kinase activity (high values). Wells containing assay buffer instead of enzyme can serve as control for background activity (low values).
Calculate IC50 values using the Smiley program (based on GrapPad Prism)

`CCc1cc(-c2ncnc(CC)c2C#Cc2ccc(N)nc2)ccn1` [Example C-3] and `CCc1ncnc(-c2ccnc(C)c2)c1C#Cc1ccc(N)nc1` [Example C-27] are within 1.5-fold of each other in IC50: 40 nM for the first, 57 nM for the second.

`CCc1ncnc(-c2cc(C)nc(C)c2)c1C#Cc1ccc(N)nc1` [Example C-4] and `CCc1ncnc(-c2ccc(C)nc2)c1C#Cc1ccc(N)nc1` [Example C-31] are within 1.5-fold of each other in IC50: 29 nM for the first, 30 nM for the second.

`CNC(=O)c1ccc(-c2ncnc(C)c2C#Cc2ccc(N)nc2)cc1Cl` [Example C-5] and `CCc1ncnc(-c2ccc(C(=O)NC)c(Cl)c2)c1C#Cc1ccc(N)nc1` [Example C-12] are within 1.5-fold of each other in IC50: 50 nM for the first, 71 nM for the second.

Going from `Cc1ncnc(-c2ccc(C(=O)N(C)C)cc2)c1C#Cc1ccc(N)nc1` [Example C-6] to `Cc1ncnc(-c2cccc(C(=O)N(C)C)c2)c1C#Cc1ccc(N)nc1` [Example C-10], the IC50 rises from 86 nM to 401 nM (4.7-fold).

Compared with `Cc1ncnc(-c2ccccc2)c1C#Cc1ccc(N)nc1` [Example C-7], `CCc1ncnc(-c2ccccc2)c1C#Cc1ccc(N)nc1` [Example C-13] is 2.5-fold higher in IC50: 39 nM for the first, 99 nM for the second.

Compared with `Cc1ncnc(-c2ccc(F)c(C(=O)N(C)C)c2)c1C#Cc1ccc(N)nc1` [Example C-9], `Cc1ncnc(-c2ccc(C(=O)N(C)C)c(F)c2)c1C#Cc1ccc(N)nc1` [Example C-11] is 5.4-fold lower in IC50: 254 nM for the first, 47 nM for the second.

Compared with `CCc1ncnc(-c2ccc(S(C)(=O)=O)cc2)c1C#Cc1ccc(N)nc1` [Example C-14], `CCc1ncnc(-c2ccc(S(C)(=O)=O)cc2)c1C#Cc1ccc(C)nc1` [Example C-17] is 1.5-fold higher in IC50: 66 nM for the first, 99 nM for the second.

Going from `CCc1ncnc(-c2ccc(C(=O)N(C)C)c(F)c2)c1C#Cc1ccc(N)nc1` [Example C-15A] to `CCc1ncnc(-c2ccc(F)c(C(=O)N(C)C)c2)c1C#Cc1ccc(N)nc1` [Example C-15], the IC50 rises from 57 nM to 189 nM (3.3-fold).

First: CCc1ncnc(-c2ccc(C(=O)NC)c(Cl)c2)c1C#Cc1ccc(C)nc1 [Example C-16]
Second: CCc1ncnc(-c2ccc(Cl)c(C(=O)NC)c2)c1C#Cc1ccc(N)nc1 [Example C-49]
The IC50 of the first is 3.5-fold higher: 236 nM for the first, 67 nM for the second. The second is the more potent here.

First: CCc1ncnc(-c2ccc(C(=O)N(C)C)cc2)c1C#Cc1ccc(C)nc1 [Example C-18]
Second: CCc1ncnc(-c2ccc(N(C)C)nc2)c1C#Cc1ccc(N)nc1 [Example C-34]
The IC50 of the first is 3.7-fold higher: 137 nM for the first, 37 nM for the second.

`Cc1cc(-c2ncnc(C)c2C#Cc2ccc(N)nc2)ccn1` [Example C-20] and `Cc1ccc(-c2ncnc(C)c2C#Cc2ccc(N)nc2)cn1` [Example C-24] are within 1.5-fold of each other in IC50: 58 nM for the first, 59 nM for the second.

Compared with `Cc1ncnc(-c2ccc(C(F)(F)F)nc2)c1C#Cc1ccc(N)nc1` [Example C-21], `CCc1ncnc(-c2ccc(C(F)(F)F)nc2)c1C#Cc1ccc(N)nc1` [Example C-28] is 1.7-fold lower in IC50: 99 nM for the first, 58 nM for the second. The second is the more potent here.

`Cc1ncnc(-c2cnc3ccccc3c2)c1C#Cc1ccc(N)nc1` [Example C-22] and `CCc1ncnc(-c2cnc3ccccc3c2)c1C#Cc1ccc(N)nc1` [Example C-29] are within 1.5-fold of each other in IC50: 30 nM for the first, 24 nM for the second.

First: COc1ccc(-c2ncnc(C)c2C#Cc2ccc(N)nc2)cn1 [Example C-23]
Second: CCc1ncnc(-c2ccc(OC)nc2)c1C#Cc1ccc(N)nc1 [Example C-30]
The IC50 of the first is 1.9-fold higher: 78 nM for the first, 40 nM for the second.

First: Cc1ncnc(-c2ccc(N3CCCCC3)nc2)c1C#Cc1ccc(N)nc1 [Example C-25]
Second: CCc1ncnc(-c2ccc(N3CCOCC3)nc2)c1C#Cc1ccc(N)nc1 [Example C-32]
The IC50 of the first is 2-fold higher: 64 nM for the first, 32 nM for the second.

First: Cc1ncnc(-c2ccc(C3CC3)nc2)c1C#Cc1ccc(N)nc1 [Example C-26]
Second: CNC(=O)c1cc(-c2ncnc(C)c2C#Cc2ccc(N)nc2)ccc1F [Example C-43]
The IC50 of the first is 4.3-fold lower: 43 nM for the first, 184 nM for the second.

`CCc1ncnc(-c2ccnc(OC)c2)c1C#Cc1ccc(N)nc1` [Example C-33] and `CCc1ncnc(-c2cccc(C(=O)NC)c2)c1C#Cc1ccc(N)nc1` [Example C-50] are within 1.5-fold of each other in IC50: 61 nM for the first, 72 nM for the second.

First: CCN(CC)C(=O)c1cccc(-c2ncnc(C)c2C#Cc2ccc(N)nc2)c1 [Example C-36]
Second: CCc1ncnc(-c2cccc(C(=O)N(CC)CC)c2)c1C#Cc1ccc(N)nc1 [Example C-44]
The IC50 of the first is 1.6-fold higher: 308 nM for the first, 188 nM for the second. The second is the more potent here.

First: Cc1ncnc(-c2cccc(C(=O)N3CCOCC3)c2)c1C#Cc1ccc(N)nc1 [Example C-37]
Second: Cc1ncnc(-c2ccc(Cl)c(C(=O)N3CCOCC3)c2)c1C#Cc1ccc(N)nc1 [Example C-40]
The IC50 of the first is 2-fold lower: 224 nM for the first, 459 nM for the second. The first is the more potent here.

First: Cc1ncnc(-c2cc(Cl)cc(C(=O)N(C)C)c2)c1C#Cc1ccc(N)nc1 [Example C-38]
Second: CCc1ncnc(-c2ccc(C(=O)N(C)CCO)c(Cl)c2)c1C#Cc1ccc(N)nc1 [Example D-34]
The IC50 of the first is 1.9-fold higher: 68 nM for the first, 36 nM for the second.

Compared with `Cc1ncnc(-c2ccc(F)c(C(=O)N3CCOCC3)c2)c1C#Cc1ccc(N)nc1` [Example C-39], `CCc1ncnc(-c2ccc(F)c(C(=O)N3CCOCC3)c2)c1C#Cc1ccc(N)nc1` [Example C-46] is 1.7-fold lower in IC50: 380 nM for the first, 226 nM for the second. The second is the more potent here.

`Cc1ncnc(-c2ccc(F)c(C(=O)N3CCCCC3)c2)c1C#Cc1ccc(N)nc1` [Example C-41] and `CCc1ncnc(-c2ccc(Cl)c(C(=O)N3CCCCC3)c2)c1C#Cc1ccc(N)nc1` [Example C-48] are within 1.5-fold of each other in IC50: 539 nM for the first, 596 nM for the second.

Compared with `CCc1ncnc(-c2ccc(Cl)c(C(=O)N(CC)CC)c2)c1C#Cc1ccc(N)nc1` [Example C-47], `CCc1ncnc(-c2ccc(C(=O)N(C)CCOC)c(Cl)c2)c1C#Cc1ccc(N)nc1` [Example D-35] is 8.6-fold lower in IC50: 541 nM for the first, 63 nM for the second. The second is the more potent here.

`CCc1ncnc(-c2ccc(C(=O)N(C)CCCOC)c(F)c2)c1C#Cc1ccc(N)nc1` [Example D-1] and `CCc1ncnc(-c2ccc(C(=O)N(C)CCOC)c(F)c2)c1C#Cc1ccc(N)nc1` [Example D-7] are within 1.5-fold of each other in IC50: 78 nM for the first, 103 nM for the second.

Compared with `CCc1ncnc(-c2ccc(C(=O)N(C)C3CCN(C)CC3)c(F)c2)c1C#Cc1ccc(N)nc1` [Example D-3], `CCc1ncnc(-c2ccc(C(=O)N3CCN(C)CC3)c(F)c2)c1C#Cc1ccc(N)nc1` [Example D-8] is 2.7-fold lower in IC50: 574 nM for the first, 215 nM for the second.

Going from `CCc1ncnc(-c2ccc(C(=O)N(C)CCCO)c(F)c2)c1C#Cc1ccc(N)nc1` [Example D-4] to `CCc1ncnc(-c2ccc(C(=O)N(C)CCCN(C)C)c(F)c2)c1C#Cc1ccc(N)nc1` [Example D-9], the IC50 rises from 58 nM to 591 nM (10-fold). The first is the more potent here.

`CCc1ncnc(-c2ccc(C(=O)NC)c(F)c2)c1C#Cc1ccc(N)nc1` [Example D-5] and `CCc1ncnc(-c2ccc(C(=O)NCCOC)c(Cl)c2)c1C#Cc1ccc(N)nc1` [Example D-33] are within 1.5-fold of each other in IC50: 225 nM for the first, 181 nM for the second.

Going from `CCc1ncnc(-c2ccc(C(=O)N3CCCCC3)c(F)c2)c1C#Cc1ccc(N)nc1C` [Example D-10] to `CCc1ncnc(-c2ccc(C(=O)N3CCOCC3)c(F)c2)c1C#Cc1ccc(N)nc1C` [Example D-20], the IC50 falls from 206 nM to 116 nM (1.8-fold). The second is the more potent here.

Compared with `CCc1ncnc(-c2ccc(C(=O)N3CCN(CC(F)F)CC3)c(F)c2)c1C#Cc1ccc(N)nc1C` [Example D-12], `CCc1ncnc(-c2ccc(C(=O)N3CCN(C)CC3)c(F)c2)c1C#Cc1ccc(N)nc1C` [Example D-21] is 1.7-fold higher in IC50: 163 nM for the first, 270 nM for the second.

Compared with `CCc1ncnc(-c2ccc(C(=O)N3CCN(C4CC4)CC3)c(F)c2)c1C#Cc1ccc(N)nc1C` [Example D-13], `CCc1ncnc(-c2ccc(C(=O)N3CCN(C4CCS(=O)(=O)C4)CC3)c(F)c2)c1C#Cc1ccc(N)nc1C` [Example D-17] is 1.8-fold lower in IC50: 312 nM for the first, 178 nM for the second. The second is the more potent here.

`CCc1ncnc(-c2ccc(C(=O)N3CCC(C(F)(F)F)CC3)c(F)c2)c1C#Cc1ccc(N)nc1C` [Example D-14] and `CCc1ncnc(-c2ccc(C(=O)N3CCN4CCCCC4C3)c(F)c2)c1C#Cc1ccc(N)nc1C` [Example D-18] are within 1.5-fold of each other in IC50: 647 nM for the first, 481 nM for the second.

Going from `CCc1ncnc(-c2ccc(C(=O)N3CCN(CC4CCCO4)CC3)c(F)c2)c1C#Cc1ccc(N)nc1C` [Example D-16] to `CCc1ncnc(-c2ccc(C(=O)N3CCN(CC4CCCCC4)CC3)c(F)c2)c1C#Cc1ccc(N)nc1C` [Example D-22], the IC50 rises from 192 nM to 1270 nM (6.6-fold). The first is the more potent here.

`CCc1ncnc(-c2ccc(C(=O)N3CCN(S(=O)(=O)CC)CC3)c(F)c2)c1C#Cc1ccc(N)nc1C` [Example D-19] and `CCc1ncnc(-c2ccc(C(=O)N3CCN(CC(=O)N(C)C)CC3)c(F)c2)c1C#Cc1ccc(N)nc1C` [Example D-23] are within 1.5-fold of each other in IC50: 92 nM for the first, 123 nM for the second.

First: CCc1ncnc(-c2ccc(C(=O)N3CCN(Cc4ccccc4)CC3)c(F)c2)c1C#Cc1ccc(N)nc1C [Example D-24]
Second: CCc1ncnc(-c2ccc(C(=O)N3CCN(c4ccccc4)CC3)c(F)c2)c1C#Cc1ccc(N)nc1C [Example D-25]
The IC50 of the first is 2-fold higher: 1020 nM for the first, 498 nM for the second. The second is the more potent here.

First: CCc1ncnc(-c2ccc(C(=O)N3CCN(CCN(C)C)CC3)c(F)c2)c1C#Cc1ccc(N)nc1C [Example D-26]
Second: CCc1ncnc(-c2ccc(C(=O)N3CCN(CCO)CC3)c(Cl)c2)c1C#Cc1ccc(N)nc1 [Example D-36]
The IC50 of the first is 6.6-fold higher: 552 nM for the first, 84 nM for the second. The second is the more potent here.

`CCCCN1CCN(C(=O)c2ccc(-c3ncnc(CC)c3C#Cc3ccc(N)nc3)cc2Cl)CC1` [Example D-29] and `CCc1ncnc(-c2ccc(C(=O)N3CCN(CC)CC3)c(Cl)c2)c1C#Cc1ccc(N)nc1` [Example D-45] are within 1.5-fold of each other in IC50: 162 nM for the first, 186 nM for the second.

Going from `CCc1ncnc(-c2ccc(C(=O)N(C)CCCOC)c(Cl)c2)c1C#Cc1ccc(N)nc1` [Example D-30] to `CCc1ncnc(-c2ccc(C(=O)N3CCNC(=O)C3)c(Cl)c2)c1C#Cc1ccc(N)nc1` [Example D-44], the IC50 falls from 68 nM to 27 nM (2.5-fold). The second is the more potent here.

`CCc1ncnc(-c2ccc(C(=O)N3CCN(C4CCOCC4)CC3)c(Cl)c2)c1C#Cc1ccc(N)nc1` [Example D-31] and `CCc1ncnc(-c2ccc(C(=O)N3CCN(C4CCS(=O)(=O)C4)CC3)c(Cl)c2)c1C#Cc1ccc(N)nc1` [Example D-32] are within 1.5-fold of each other in IC50: 97 nM for the first, 121 nM for the second.

`CCc1ncnc(-c2ccc(C(=O)N3CCN(c4ccccn4)CC3)c(Cl)c2)c1C#Cc1ccc(N)nc1` [Example D-37] and `CCc1ncnc(-c2ccc(C(=O)N3CCN(c4ccccc4)CC3)c(Cl)c2)c1C#Cc1ccc(N)nc1` [Example D-39] are within 1.5-fold of each other in IC50: 118 nM for the first, 89 nM for the second.

First: CCc1ncnc(-c2ccc(C(=O)N3CCN(CC(F)F)CC3)c(Cl)c2)c1C#Cc1ccc(N)nc1 [Example D-41]
Second: CCc1ncnc(-c2ccc(C(=O)N3CCN(CC(F)F)CC3)c(OC)c2)c1C#Cc1ccc(N)nc1 [Example D-47]
The IC50 of the first is 2.8-fold higher: 177 nM for the first, 63 nM for the second.

First: CCc1ncnc(-c2ccc(C(=O)N3CCN(C(C)(C)C)CC3)c(Cl)c2)c1C#Cc1ccc(N)nc1 [Example D-43]
Second: CCc1ncnc(-c2ccc(C(=O)N3CCN(C(C)=O)CC3)c(Cl)c2)c1C#Cc1ccc(N)nc1 [Example D-46]
The IC50 of the first is 4.5-fold higher: 436 nM for the first, 97 nM for the second. The second is the more potent here.
